# Key:
# [1] = CuAAC (i,i+4) side-chain stapling of azidolysine with propargylglycine or O-propargylserine; CuSO4·5H2O (1 eq), Na ascorbate (5 eq); from purified linear peptides; details: the molecule shown is the open-chain precursor, tBuOH/H2O 1:2, 0.5 mM, 25.0 °C
# [2] = CuAAC (i,i+4) side-chain stapling of azidolysine with propargylglycine or O-propargylserine; CuSO4·5H2O (1 eq), Na ascorbate (5 eq); from crude linear peptides; details: the molecule shown is the open-chain precursor, tBuOH/H2O 1:2, 0.5 mM, 25.0 °C
# [3] = biological target: T1, β2-adrenergic receptor (β2AR) (Homo sapiens, UniProt P07550); assay: Membrane-based cAMP accumulation assay (HTRF), ISO-induced cAMP formation; format: biochemical
# T1 construct: expressed in transfected cells; host or cells: HEK293 cells stably overexpressing β2AR; membrane fractions used
# Method: To allow the peptidomimetics to interact with the intracellular G protein binding pocket they were tested in a membrane-based cAMP accumulation assay (see ESI ^†). […] The cAMP levels in absence of peptidomimetics were normalised to the basal (0%) and maximal efficacy (100%) of ISO in presence of vehicle (DMSO).
# overexpressing the β2AR8 were prepared and the peptidomimetics tested as previously
# peptidomimetics diluted in HBSS buffer supplemented with 20 mM HEPES pH 7.5, 0.1 %
# Elmer) at room temperature (RT) for 15 min. Then isoproterenol solutions for the
# prepared in ligand buffer (HBSS buffer supplemented with 20 mM HEPES pH 7.5, 0.1 %
# added to the wells and incubated for 30 min at room temperature. To detect cAMP formation
# the HTRF cAMP d ynamic 2 assa y kit from CisBio (cat no. 2AM4PEC) was used according
# to the manufactures protocol. The absolute cAMP levels were determined using a cAMP
# standard curve and norm alised to the maximal cAMP response obtained by full isoproterenol
# stimulation alone. Significant differen ces b etween IS O alon e and in presence of the p eptides
# were calculat ed statisticall y b y use of on e- wa y ANOVA in the GraphPad Prism software.
# [4] = test system: β2AR (β2AR-Δ4 construct, C265 bimane-labelled); assay: Conformational bimane fluorescence shift assay on purified mBBr-labelled β2AR; format: biochemical; details: increasing concentrations of ISO, saturating at 250 μM and 500 μM
# Method: To further investigate their pharmacological profiles, selected peptidomimetics were tested in a bimane fluorescence shift assay (see ESI ^†). […] Stimulation of purified, C265 fluorophore-labelled β2AR with increasing concentrations of ISO results in a concentration-dependent decrease in the fluorescence intensity (FI) and a red-shift of the maximum emission wavelength (λmax) of the bimane-fluorophore probe (Fig. 5A).
# Bimane-fluorescence curves in presence of agonist or peptidomimetic alone or in combination were normalised to that of the receptor alone.
# Conformational biman e fluorescence assay
# Baculovirus es containing the β2AR-Δ4 construct (full-length β 2AR with four mutated
# cystein es (C77V, C327S , C378 A and C406A10,11) were generated as pr eviousl y d escribed b y
# Rosenbaum et al.12 The modi fied β 2AR wa s ex pre s sed in S f9 insect cel ls using r ecombi na nt
# baculovi rus and pu rified b y M1-anti- FLAG im munoaffinit y chr omatograph y. The F LAG -
# purified receptor was l abe lled with monobromobimane (mBBr) and purified b y alprenolol
# affinit y chr omato graph y as described b y Yao et al. 13 with one minor change; the modified β2AR
# was labelled with an excess of 10 µM mBBr (instead of equivalent amounts of β 2AR and
# mBBr). […]
# ligands and peptide s were subtracted from the samples. Data was analysed b y use of the […]
# T1 sequence (P07550 whole entry, species assumed): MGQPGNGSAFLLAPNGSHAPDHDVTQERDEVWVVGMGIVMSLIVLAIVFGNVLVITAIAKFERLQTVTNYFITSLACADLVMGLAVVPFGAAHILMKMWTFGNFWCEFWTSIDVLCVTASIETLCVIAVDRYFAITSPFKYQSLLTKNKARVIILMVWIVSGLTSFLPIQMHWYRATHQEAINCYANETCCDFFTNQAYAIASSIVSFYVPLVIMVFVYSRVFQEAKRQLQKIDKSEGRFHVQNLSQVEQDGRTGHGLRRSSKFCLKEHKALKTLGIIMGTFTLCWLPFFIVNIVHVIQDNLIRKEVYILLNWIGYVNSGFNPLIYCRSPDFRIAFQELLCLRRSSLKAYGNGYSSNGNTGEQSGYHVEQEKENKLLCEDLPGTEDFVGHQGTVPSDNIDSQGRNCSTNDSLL
smiles,measurement,setting,value
C#CCOC[C@H](NC(=O)[C@H](CCCNC(=N)N)NC(=O)[C@H](CCC(N)=O)NC(=O)[C@@H](NC(=O)[C@@H](CCCCN=[N+]=[N-])NC(=O)[C@H](CC(=O)O)NC(=O)[C@H](CCCNC(=N)N)NC(C)=O)[C@@H](C)CC)C(=O)N[C@@H](Cc1cnc[nH]1)C(=O)N[C@@H](CC(C)C)C(=O)N[C@@H](CCCNC(=N)N)C(=O)N[C@@H](CCC(N)=O)C(=O)N[C@@H](Cc1ccc(O)cc1)C(=O)N[C@@H](CCC(=O)O)C(=O)N[C@@H](CC(C)C)C(=O)N[C@@H](CC(C)C)C(=O)O [Ac-R-D-(D-K(N3))-I-Q-R-Ser(O-propargyl)-H-L-R-Q-Y-E-L-L-OH],"ring closure, isolated yield",[1]; 23-membered ring,40%
C#CCOC[C@H](NC(=O)[C@H](CCCNC(=N)N)NC(=O)[C@H](CC(C)C)NC(=O)[C@H](Cc1cnc[nH]1)NC(=O)[C@@H](CCCCN=[N+]=[N-])NC(=O)[C@H](CCCNC(=N)N)NC(=O)[C@H](CCC(N)=O)NC(=O)[C@@H](NC(=O)[C@@H](NC(=O)[C@H](CC(=O)O)NC(=O)[C@H](CCCNC(=N)N)NC(C)=O)[C@@H](C)CC)[C@@H](C)CC)C(=O)N[C@@H](Cc1ccc(O)cc1)C(=O)N[C@@H](CCC(=O)O)C(=O)N[C@@H](CC(C)C)C(=O)N[C@@H](CC(C)C)C(=O)O [Ac-R-D-I-I-Q-R-(D-K(N3))-H-L-R-Ser(O-propargyl)-Y-E-L-L-OH],"ring closure, overall yield","[2]; 23-membered ring, 3.0 h",11%
CC[C@H](C)[C@H](NC(=O)[C@H](CC(=O)O)NC(=O)[C@H](CCCNC(=N)N)NC(C)=O)C(=O)N[C@H](C(=O)N[C@@H](CCC(N)=O)C(=O)N[C@@H](CCCNC(=N)N)C(=O)N[C@H]1CCCCn2cc(nn2)C[C@@H](C(=O)N[C@@H](Cc2ccc(O)cc2)C(=O)N[C@@H](CCC(=O)O)C(=O)N[C@@H](CC(C)C)C(=O)N[C@@H](CC(C)C)C(=O)O)NC(=O)[C@H](CCCNC(=N)N)NC(=O)[C@H](CC(C)C)NC(=O)[C@H](Cc2c[nH]cn2)NC1=O)[C@@H](C)CC [Peptide 10C],Maximum efficacy of ISO,"[3]; ISO CRC in presence of 100 μM peptidomimetic, HEK293 membranes overexpressing β2AR, normalised to ISO with vehicle (100%), mean ± SEM, n = 3, * P < 0.05",61.0 ± 4.1* %
same,Basal level (basal cAMP level of the ISO concentration-response curve),"[3]; ISO CRC in presence of 100 μM peptidomimetic, HEK293 membranes overexpressing β2AR, normalised to basal (0%) and maximal efficacy (100%) of ISO with vehicle (DMSO), 15 min preincubation, 30 min RT, mean ± SEM, n = 3",−11.0 ± 4.3%
same,Hill slope of the ISO concentration-response curve,"[3]; in presence of 100 μM peptidomimetic, mean ± SEM, n = 3",0.63 ± 0.06
same,IC50,"[3]; in presence of an ISO concentration corresponding to EC75, 10C up to 200 μM, read-out: IC50 for blocking ISO-induced cAMP formation (estimated)",55 µM
C#CC[C@H](NC(=O)[C@H](CCCNC(=N)N)NC(=O)[C@H](CC(C)C)NC(=O)[C@H](Cc1cnc[nH]1)NC(=O)[C@@H](CCCCN=[N+]=[N-])NC(=O)[C@H](CCCNC(=N)N)NC(=O)[C@H](CCC(N)=O)NC(=O)[C@@H](NC(=O)[C@@H](NC(=O)[C@H](CC(=O)O)NC(=O)[C@H](CCCNC(=N)N)NC(C)=O)[C@@H](C)CC)[C@@H](C)CC)C(=O)N[C@@H](Cc1ccc(O)cc1)C(=O)N[C@@H](CCC(=O)O)C(=O)N[C@@H](CC(C)C)C(=O)N[C@@H](CC(C)C)C(=O)O [Ac-R-D-I-I-Q-R-(D-K(N3))-H-L-R-Pra-Y-E-L-L-OH],"ring closure, overall yield","[2]; 21-membered ring, 1.0 h",26%
C#CC[C@H](NC(=O)[C@H](CCCNC(=N)N)NC(=O)[C@H](CC(C)C)NC(=O)[C@H](Cc1cnc[nH]1)NC(=O)[C@H](CCCCN=[N+]=[N-])NC(=O)[C@H](CCCNC(=N)N)NC(=O)[C@H](CCC(N)=O)NC(=O)[C@@H](NC(=O)[C@@H](NC(=O)[C@H](CC(=O)O)NC(=O)[C@H](CCCNC(=N)N)NC(C)=O)[C@@H](C)CC)[C@@H](C)CC)C(=O)N[C@@H](Cc1ccc(O)cc1)C(=O)N[C@@H](CCC(=O)O)C(=O)N[C@@H](CC(C)C)C(=O)N[C@@H](CC(C)C)C(=O)O [Ac-R-D-I-I-Q-R-K(N3)-H-L-R-Pra-Y-E-L-L-OH],"ring closure, overall yield","[2]; 21-membered ring, 3.0 h",10%
C#CCOC[C@H](NC(=O)[C@H](CCCC)NC(=O)[C@H](CCCNC(=N)N)NC(=O)[C@H](CCC(N)=O)NC(=O)[C@@H](CCCCN=[N+]=[N-])NC(=O)[C@@H](NC(=O)[C@H](CC(=O)O)NC(=O)[C@H](CCCNC(=N)N)NC(C)=O)[C@@H](C)CC)C(=O)N[C@@H](CC(C)C)C(=O)N[C@@H](CCCNC(=N)N)C(=O)N[C@@H](CCC(N)=O)C(=O)N[C@@H](Cc1ccc(O)cc1)C(=O)N[C@@H](CCC(=O)O)C(=O)N[C@@H](CC(C)C)C(=O)N[C@@H](CC(C)C)C(=O)O [Ac-R-D-I-(D-K(N3))-Q-R-Nle-Ser(O-propargyl)-L-R-Q-Y-E-L-L-OH],"ring closure, overall yield",[2]; 23-membered ring,13%
C#CC[C@H](NC(=O)[C@H](CCCNC(=N)N)NC(=O)[C@H](CCC(N)=O)NC(=O)[C@@H](NC(=O)[C@@H](CCCCN=[N+]=[N-])NC(=O)[C@H](CC(=O)O)NC(=O)[C@H](CCCNC(=N)N)NC(C)=O)[C@@H](C)CC)C(=O)N[C@@H](Cc1cnc[nH]1)C(=O)N[C@@H](CC(C)C)C(=O)N[C@@H](CCCNC(=N)N)C(=O)N[C@@H](CCC(N)=O)C(=O)N[C@@H](Cc1ccc(O)cc1)C(=O)N[C@@H](CCC(=O)O)C(=O)N[C@@H](CC(C)C)C(=O)N[C@@H](CC(C)C)C(=O)O [Ac-R-D-(D-K(N3))-I-Q-R-Pra-H-L-R-Q-Y-E-L-L-OH],"ring closure, isolated yield","[1]; 21-membered ring, 0.25 h",56%
C#CCOC[C@H](NC(=O)[C@H](CCCNC(=N)N)NC(=O)[C@H](CCC(N)=O)NC(=O)[C@@H](NC(=O)[C@H](CCCCN=[N+]=[N-])NC(=O)[C@H](CC(=O)O)NC(=O)[C@H](CCCNC(=N)N)NC(C)=O)[C@@H](C)CC)C(=O)N[C@@H](Cc1cnc[nH]1)C(=O)N[C@@H](CC(C)C)C(=O)N[C@@H](CCCNC(=N)N)C(=O)N[C@@H](CCC(N)=O)C(=O)N[C@@H](Cc1ccc(O)cc1)C(=O)N[C@@H](CCC(=O)O)C(=O)N[C@@H](CC(C)C)C(=O)N[C@@H](CC(C)C)C(=O)O [Ac-R-D-K(N3)-I-Q-R-Ser(O-propargyl)-H-L-R-Q-Y-E-L-L-OH],"ring closure, isolated yield","[1]; 23-membered ring, 1.0 h",69%
C#CC[C@H](NC(=O)[C@H](CCCC)NC(=O)[C@H](CCCNC(=N)N)NC(=O)[C@H](CCC(N)=O)NC(=O)[C@H](CCCCN=[N+]=[N-])NC(=O)[C@@H](NC(=O)[C@H](CC(=O)O)NC(=O)[C@H](CCCNC(=N)N)NC(C)=O)[C@@H](C)CC)C(=O)N[C@@H](CC(C)C)C(=O)N[C@@H](CCCNC(=N)N)C(=O)N[C@@H](CCC(N)=O)C(=O)N[C@@H](Cc1ccc(O)cc1)C(=O)N[C@@H](CCC(=O)O)C(=O)N[C@@H](CC(C)C)C(=O)N[C@@H](CC(C)C)C(=O)O [Ac-R-D-I-K(N3)-Q-R-Nle-Pra-L-R-Q-Y-E-L-L-OH],"ring closure, overall yield",[2]; 21-membered ring,10%
"CC(C)NC[C@H](O)c1ccc(O)c(O)c1 [ISO, (−)-isoproterenol]",Effect on bimane fluorescence (FI and λmax) / receptor conformation,[4],induces an active receptor conformation in a concentration-dependent manner
C#CC[C@H](NC(=O)[C@H](CCCC)NC(=O)[C@H](CCCNC(=N)N)NC(=O)[C@H](CCC(N)=O)NC(=O)[C@@H](CCCCN=[N+]=[N-])NC(=O)[C@@H](NC(=O)[C@H](CC(=O)O)NC(=O)[C@H](CCCNC(=N)N)NC(C)=O)[C@@H](C)CC)C(=O)N[C@@H](CC(C)C)C(=O)N[C@@H](CCCNC(=N)N)C(=O)N[C@@H](CCC(N)=O)C(=O)N[C@@H](Cc1ccc(O)cc1)C(=O)N[C@@H](CCC(=O)O)C(=O)N[C@@H](CC(C)C)C(=O)N[C@@H](CC(C)C)C(=O)O [Ac-R-D-I-(D-K(N3))-Q-R-Nle-Pra-L-R-Q-Y-E-L-L-OH],"ring closure, overall yield",[2]; 21-membered ring,11%
C#CCOC[C@H](NC(=O)[C@H](CCCNC(=N)N)NC(=O)[C@H](CC(C)C)NC(=O)[C@H](Cc1cnc[nH]1)NC(=O)[C@H](CCCCN=[N+]=[N-])NC(=O)[C@H](CCCNC(=N)N)NC(=O)[C@H](CCC(N)=O)NC(=O)[C@@H](NC(=O)[C@@H](NC(=O)[C@H](CC(=O)O)NC(=O)[C@H](CCCNC(=N)N)NC(C)=O)[C@@H](C)CC)[C@@H](C)CC)C(=O)N[C@@H](Cc1ccc(O)cc1)C(=O)N[C@@H](CCC(=O)O)C(=O)N[C@@H](CC(C)C)C(=O)N[C@@H](CC(C)C)C(=O)O [Ac-R-D-I-I-Q-R-K(N3)-H-L-R-Ser(O-propargyl)-Y-E-L-L-OH],"ring closure, overall yield","[2]; 23-membered ring, 2.0 h",14%
C#CCOC[C@H](NC(=O)[C@H](CCCC)NC(=O)[C@H](CCCNC(=N)N)NC(=O)[C@H](CCC(N)=O)NC(=O)[C@H](CCCCN=[N+]=[N-])NC(=O)[C@@H](NC(=O)[C@H](CC(=O)O)NC(=O)[C@H](CCCNC(=N)N)NC(C)=O)[C@@H](C)CC)C(=O)N[C@@H](CC(C)C)C(=O)N[C@@H](CCCNC(=N)N)C(=O)N[C@@H](CCC(N)=O)C(=O)N[C@@H](Cc1ccc(O)cc1)C(=O)N[C@@H](CCC(=O)O)C(=O)N[C@@H](CC(C)C)C(=O)N[C@@H](CC(C)C)C(=O)O [Ac-R-D-I-K(N3)-Q-R-Nle-Ser(O-propargyl)-L-R-Q-Y-E-L-L-OH],"ring closure, overall yield","[2]; 23-membered ring, 1.0 h",15%
C#CC[C@H](NC(=O)[C@H](CCCNC(=N)N)NC(=O)[C@H](CCC(N)=O)NC(=O)[C@@H](NC(=O)[C@H](CCCCN=[N+]=[N-])NC(=O)[C@H](CC(=O)O)NC(=O)[C@H](CCCNC(=N)N)NC(C)=O)[C@@H](C)CC)C(=O)N[C@@H](Cc1cnc[nH]1)C(=O)N[C@@H](CC(C)C)C(=O)N[C@@H](CCCNC(=N)N)C(=O)N[C@@H](CCC(N)=O)C(=O)N[C@@H](Cc1ccc(O)cc1)C(=O)N[C@@H](CCC(=O)O)C(=O)N[C@@H](CC(C)C)C(=O)N[C@@H](CC(C)C)C(=O)O [Ac-R-D-K(N3)-I-Q-R-Pra-H-L-R-Q-Y-E-L-L-OH],"ring closure, isolated yield","[1]; 21-membered ring, 0.25 h",36%

# Source: article PMC9077236, “Gs protein peptidomimetics as allosteric modulators of the β2-adrenergic receptor” (RSC Advances, 2018)
